{
  "source": "patent US12214076B2",
  "about": "“Drug delivery vehicles for atherosclerosis nanomedicine” (Northwestern University, priority 2019, dated 2025)",
  "key": {"J774.2 mouse macrophages": {"system": "J774.2 mouse macrophages", "experiment": "In Vitro Cholesterol Efflux Assay (Example 1)", "assay_type": "cell-based", "settings": "two- and threefold higher concentrations of LXR"}, "[1]": {"experiment": "Treatment study serum chemistry (toxicology analysis)", "assay_type": "in vivo, mouse", "settings": "for Alanine Aminotransferase (ALT) / Alkaline phosphatase / Aspartate Aminotransferase (AST) / Bicarbonate and CO2 / Bilirubin - Conjugated / Bilirubin - Unconjugated / Blood Urea Nitrogen / Cholesterol / Creatine / Creatine Kinase / Globulin / Glucose / Potassium / Sodium / Total Bilirubin / Total Protein: group median, end of 8-week treatment", "procedure": "(§1) Blood samples were collected at the end of the treatment study for toxicology analysis. Mice were euthanized three days after their 16th treatment.\n(§2) Tissue processing and imaging: Mice were sacrificed and euthanized under inhaled isoflurane anesthesia by diaphragm disruption and exsanguination. Phlebotomy was performed through direct right ventricular cardiac puncture using a 1 mL syringe and 25 G needle. Perfusion was performed through left ventricular cardiac puncture with 10 mL PBS and 10 mL 10% sucrose solution. The lungs, liver, spleen, kidney, aortic root, aortic arch, and descending aorta were harvested and stored in 10% sucrose for 20 minutes. Organs and vessels were then flash-frozen in Optimal Cutting Temperature embedding medium 4583 (Tissue-Tek®) with liquid nitrogen. Frozen specimens were stored at −80° C. and cryosectioned at […]. Confocal microscopy was performed on a Nikon AIR microscope. Two sets of images were acquired with a 10× Plan Fluor NA 0.3 objective. PAs were identified through quantification of the Alexa Fluor® 546 conjugated dye with 561 nm excitation and a 600/50 nm emission filter.\n(§3) Statistics: The effect of treatments and sex on atherosclerosis progression in mice was analyzed using one- or two-factor analysis of variance (ANOVA) followed by a post-hoc student's t-test. The toxicological effects of treatments were also analyzed using two-factor ANOVA and a post-hoc student's t-test. Toxicological effects of treatments on liver proteins AST, ALT, and ALP were further analyzed using ordinal logistic regression models of likelihood ratio tests, followed by a post-hoc Wald test"}, "[2]": {"experiment": "Dialysis LXR agonist release study", "assay_type": "physicochemical", "settings": "non-encapsulated LXR agonist, PBS, within the first hour", "procedure": "LXR-40% ApoA1 PA (1 mM with respect to PA) was dissolved in PBS. […] To each dialysis cup 0.1 mL of sample was added with one cup used for each time-point to be measured. All samples were dialyzed against 4 mL of PBS at 37° C. The total contents of one dialysis cup were isolated and kept at 4° C. until measurement at each time point. […] For LC-MS, a 5 to 95% acetonitrile (0.1% formic acid) gradient was run over 30 min with mobile phase containing 0.1% NH40H. A total ion chromatogram was obtained in MS mode and integrated using Mass Hunter Agilent software. The peak area corresponding to [M-H]− for GW3965 was recorded for each sample in negative ion mode and normalized according to the volume of sample present. Percent encapsulation was determined as follows:\n[formula] where NPA is the normalized peak area corresponding to LXR agonist (normalized for solution volume)."}, "LDLR KO mice": {"system": "LDLR KO mice", "experiment": "Atherosclerosis treatment study", "assay_type": "in vivo, mouse", "settings": "both sexes", "procedure": "Mouse model of atherosclerosis: To study atherosclerosis, the LDLR KO mouse was used. LDLR KO mice are fed a high fat “western” diet (Teklad TD.88137) starting at 4 weeks of age. This diet consists of 20% fat, 0.2% cholesterol, and 34% high sucrose. LDLR KO mice fed this diet typically develop severe hypercholesterolemia (>800 mg/dL) and hypertriglyceridemia (>300 mg/dL) after only 2 weeks. By 12 weeks on the high fat diet, atherosclerotic lesions are detected in the aortic root and aortic arch on cryosections stained with Oil Red O (Sigma). Atherosclerosis was quantified in the aortic root as a percentage of the aortic root by taking the atherosclerotic area divided by the total aortic root area. Measurements were made with ImageJ software. All protocols for the animal model and procedures in this manuscript were approved by Northwestern University's Institutional Animal Care and Use Committee.\nas §1, §2\nImages were acquired with spectral detection and spectrally unmixed to accurately separate green autofluorescence from the red Alexa Fluor® 546 signal. Brightfield and fluorescent microscopy were performed using a Zeiss Axio Imager.A2 microscope with AxioVision software (release 4.8.2, 06-2010). All confocal and fluorescent sections were mounted with ProGold Diamond mounting media (Sigma). Slides were stained with Oil Red O to image and quantify atherosclerosis under brightfield microscopy. The elastic laminae were identified using the green fluorescent protein (GFP) filter with an exposure time of 3500 ms under 5× magnification. Nanofibers were identified in the aortic root by presence of Alexa Fluor® 546 on the Cy3 filter under 5-10× magnification, and in the internal organs under 20× magnification. Fluorescent pixel quantification in the aortic root and within organs was performed with ImageJ software.\nas §3"}, "[3]": {"experiment": "Solubility of LXR agonist without PA", "assay_type": "physicochemical", "settings": "deionized water or PBS"}},
  "data": [
    {"smiles": "Cl.O=C(O)Cc1cccc(OCCCN(Cc2cccc(C(F)(F)F)c2Cl)CC(c2ccccc2)c2ccccc2)c1", "note": "[LXR, GW3965]", "values": [
      {"measurement": "LXR effects upon macrophage efflux", "setting": "J774.2 mouse macrophages", "result": "no significant increases"},
      {"measurement": "Alanine Aminotransferase (ALT)", "setting": "[1]; All mice", "result": 40, "unit": "U/L"},
      {"measurement": "Alkaline phosphatase", "setting": "[1]; All mice", "result": 65.5, "unit": "U/L"},
      {"measurement": "Aspartate Aminotransferase (AST)", "setting": "[1]; All mice", "result": 135, "unit": "U/L"},
      {"measurement": "Bicarbonate and CO2", "setting": "[1]; All mice", "result": 12, "unit": "mmol/L"},
      {"measurement": "Bilirubin - Conjugated", "setting": "[1]; All mice", "result": 0.05, "unit": "mg/dL"},
      {"measurement": "Bilirubin - Unconjugated", "setting": "[1]; All mice", "result": 0.3, "unit": "mg/dL"},
      {"measurement": "Blood Urea Nitrogen", "setting": "[1]; All mice", "result": 23, "unit": "mg/dL"},
      {"measurement": "Cholesterol", "setting": "[1]; All mice", "result": 2000.5, "unit": "mg/dL"},
      {"measurement": "Creatine", "setting": "[1]; All mice", "result": 0, "unit": "U/L"},
      {"measurement": "Creatine Kinase", "setting": "[1]; All mice", "result": 137.5, "unit": "U/L"},
      {"measurement": "Globulin", "setting": "[1]; All mice", "result": 2.7, "unit": "g/dL"},
      {"measurement": "Glucose", "setting": "[1]; All mice", "result": 237, "unit": "mg/dL"},
      {"measurement": "Potassium", "setting": "[1]; All mice", "result": 5.2, "unit": "mmol/L"},
      {"measurement": "Sodium", "setting": "[1]; All mice", "result": 139.5, "unit": "mmol/L"},
      {"measurement": "Total Bilirubin", "setting": "[1]; All mice", "result": 0.4, "unit": "mg/dL"},
      {"measurement": "Total Protein", "setting": "[1]; All mice", "result": 5.45, "unit": "g/dL"},
      {"measurement": "Alanine Aminotransferase (ALT)", "setting": "[1]; Females", "result": 33, "unit": "U/L"},
      {"measurement": "Alkaline phosphatase", "setting": "[1]; Females", "result": 73, "unit": "U/L"},
      {"measurement": "Aspartate Aminotransferase (AST)", "setting": "[1]; Females", "result": 142, "unit": "U/L"},
      {"measurement": "Bicarbonate and CO2", "setting": "[1]; Females", "result": 10, "unit": "mmol/L"},
      {"measurement": "Bilirubin - Conjugated", "setting": "[1]; Females", "result": 0, "unit": "mg/dL"},
      {"measurement": "Bilirubin - Unconjugated", "setting": "[1]; Females", "result": 0.5, "unit": "mg/dL"},
      {"measurement": "Blood Urea Nitrogen", "setting": "[1]; Females", "result": 21.5, "unit": "mg/dL"},
      {"measurement": "Cholesterol", "setting": "[1]; Females", "result": 2029, "unit": "mg/dL"},
      {"measurement": "Creatine", "setting": "[1]; Females", "result": 0, "unit": "U/L"},
      {"measurement": "Creatine Kinase", "setting": "[1]; Females", "result": 136, "unit": "U/L"},
      {"measurement": "Globulin", "setting": "[1]; Females", "result": 2.3, "unit": "g/dL"},
      {"measurement": "Glucose", "setting": "[1]; Females", "result": 203, "unit": "mg/dL"},
      {"measurement": "Potassium", "setting": "[1]; Females", "result": 4.6, "unit": "mmol/L"},
      {"measurement": "Sodium", "setting": "[1]; Females", "result": 140, "unit": "mmol/L"},
      {"measurement": "Total Bilirubin", "setting": "[1]; Females", "result": 0.6, "unit": "mg/dL"},
      {"measurement": "Total Protein", "setting": "[1]; Females", "result": 5.4, "unit": "g/dL"},
      {"measurement": "Alanine Aminotransferase (ALT)", "setting": "[1]; Males", "result": 47, "unit": "U/L"},
      {"measurement": "Alkaline phosphatase", "setting": "[1]; Males", "result": 41, "unit": "U/L"},
      {"measurement": "Aspartate Aminotransferase (AST)", "setting": "[1]; Males", "result": 102, "unit": "U/L"},
      {"measurement": "Bicarbonate and CO2", "setting": "[1]; Males", "result": 14, "unit": "mmol/L"},
      {"measurement": "Bilirubin - Conjugated", "setting": "[1]; Males", "result": 0.1, "unit": "mg/dL"},
      {"measurement": "Bilirubin - Unconjugated", "setting": "[1]; Males", "result": 0.2, "unit": "mg/dL"},
      {"measurement": "Blood Urea Nitrogen", "setting": "[1]; Males", "result": 24, "unit": "mg/dL"},
      {"measurement": "Cholesterol", "setting": "[1]; Males", "result": 1972, "unit": "mg/dL"},
      {"measurement": "Creatine", "setting": "[1]; Males", "result": 0, "unit": "U/L"},
      {"measurement": "Creatine Kinase", "setting": "[1]; Males", "result": 138, "unit": "U/L"},
      {"measurement": "Globulin", "setting": "[1]; Males", "result": 2.8, "unit": "g/dL"},
      {"measurement": "Glucose", "setting": "[1]; Males", "result": 259, "unit": "mg/dL"},
      {"measurement": "Potassium", "setting": "[1]; Males", "result": 5.2, "unit": "mmol/L"},
      {"measurement": "Sodium", "setting": "[1]; Males", "result": 139, "unit": "mmol/L"},
      {"measurement": "Total Bilirubin", "setting": "[1]; Males", "result": 0.3, "unit": "mg/dL"},
      {"measurement": "Total Protein", "setting": "[1]; Males", "result": 5.5, "unit": "g/dL"},
      {"measurement": "AST levels in comparison to the PBS control", "setting": "[1]; female mice", "result": "no significant differences"},
      {"measurement": "aspartate aminotransferase (AST) in the blood in comparison to PBS", "setting": "[1]; male mice", "result": "significantly elevated levels of aspartate aminotransferase (AST)"},
      {"measurement": "release across the dialysis membrane", "setting": "[2]", "result": "up to 85%"},
      {"measurement": "reversal of atherosclerosis from baseline levels", "setting": "LDLR KO mice", "result": "approximately 5%"},
      {"measurement": "atherosclerosis progression in comparison to the PBS control", "setting": "LDLR KO mice; twice per week over eight weeks, percent of atherosclerosis in the aortic root", "result": "significantly decreased"},
      {"measurement": "solubility", "setting": "[3]", "result": "insoluble"}
    ]}
  ]
}
